Assay results taken from patent US4971980A, “Pharmacologically active benzimidazole derivatives” (Dompe Farmaceutici S.p.A., priority 1988, dated 1990).
pKi: −log10 of the molar value.

Key:
Acute toxicity (LD50) = conditions: mouse, in vivo, ip; mice, 14 days observation
Description: The Letal Dose50 (LD50) was evaluated on mice using Swiss-Nos (Nossan, Correzzana, Milano) mice weighing 18-20 g each. The animals, divided into groups of 10 animals each (5M +5F), were on an empty stomach for 18 hrs, with water ad libitum, and kept in cages with grid floor. The compounds (I) were dissolved in water or suspended in 0.5% carboxymethylcellulose and intraperitoneally administered to the animals (10 ml/kg). The mortality occured in the tested animals within the following 6 hours was noted down. At the expiry of the 6th hour, the animals were allowed to eat up to the end of the experimentation which lasted 14 days. During this period all the toxic symptoms and the mortality occuring were noted.
The animals which died during the test period and those which were sacrificed at the end of the same, underwent autopsy for a macroscopic examination of their main organs. The experimental data were statistically compared with the X^2 method and LD50 was extrapolated by the `probit` method.

[1] = system: mortality induced by histamine; test: Effect on the mortality induced by histamine; assay type: in vivo, male albino guinea pigs (Dunkin-Hartley); conditions: Cavia porcellus, po; guinea pigs, os, 60 minutes before 1,25 mg/kg i.v. histamine dihydrochloride; parentheses: range
Description: The method described by Romer D. et al. (Med.Welt, 17, 791, 1966) was followed and the tests were carried out on male albino guinea pigs (Dunkin-Hartley), weighing 350-450 g, which were kept in cages with a grid floor, on an empty stomach for 24 hrs with water ad libitum.
The compounds under examination were dissolved in 0,5% carboxymethylcellolose and orally administered to the animals; 60 minutes later the same animals were intravenously treated with 1,25 mg/kg of histamine dihydrochloride in saline solution.
It was evaluated ED50 which corresponds to the amount of the compound able to inhibit 50% of the mortality induced by histamine: the estimation of ED50 was carried out applying the `probit` method (Finney D. J., Statistical methods in biological assay, pg 512, 1957).

[2] = system: sleeping time induced by sodium pentobarbital; test: Effect on the sleeping time interval induced by pentobarbital; assay type: in vivo, male mice Swiss-Nos; design: key: IN: inactive at the dose of 100 mg/kg i.p; conditions: mice, i.p., 30 minutes before 40 mg/kg i.p. sodium pentobarbital; ED100 = doubles the sleeping time vs control
Description: The tests were carried out on male mice Swiss-Nos (Nossan, Correzzana, Milano) weighing 20-24 g, on an empty stomach for 18 hrs, according to the method described by Turner (Screening Methods in Pharmacology, Acad. Press, pg 70,1965). The sleep was induced by intraperitoneal administration of 40 mg/kg sodium pentobarbital. The narcosis start was considered from the moment when the animal, lying on its back, lost its straightening reflex. The narcosis end was considered from the moment when the animal recovered such reflex. The carrier or the compounds under examination were intraperitoneally administered 30 minutes before the pentobarbital administration. The resulting data are expressed as sleeping time increase per cent of the treated animals in comparison with the controls.

[3] = molecular target: T1, H1 histaminergic receptors (Rattus norvegicus, UniProt P31390); test: Affinity towards H1 histaminergic receptors ([3H]Mepyramine displacement); conditions: homogenates of rat brain, 25° C., 15 minutes, pH 7.5, read-out: H1-receptor binding Ki
T1 construct: in homogenates of rat brain; from tissue; host or cells: rat whole brain homogenate
T1 sequence (P31390 whole entry): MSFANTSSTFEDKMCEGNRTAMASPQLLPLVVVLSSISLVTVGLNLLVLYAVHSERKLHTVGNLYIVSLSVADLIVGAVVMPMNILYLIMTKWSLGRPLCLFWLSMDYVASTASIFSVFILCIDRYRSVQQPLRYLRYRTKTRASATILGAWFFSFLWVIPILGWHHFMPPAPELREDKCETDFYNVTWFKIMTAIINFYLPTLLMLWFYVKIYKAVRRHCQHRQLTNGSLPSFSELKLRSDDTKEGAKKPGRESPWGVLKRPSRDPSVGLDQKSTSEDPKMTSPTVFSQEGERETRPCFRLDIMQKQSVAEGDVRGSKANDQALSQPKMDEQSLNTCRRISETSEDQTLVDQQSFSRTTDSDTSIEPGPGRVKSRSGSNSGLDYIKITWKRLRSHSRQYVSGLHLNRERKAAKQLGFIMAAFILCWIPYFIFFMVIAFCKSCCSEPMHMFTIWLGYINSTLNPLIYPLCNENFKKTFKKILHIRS
Description: The incubation was performed at 25° C. for 15 minutes, in a final volume of 1 ml of 50 mM Na/K phosphate buffer, pH 7.5, in the presence of […][^3 H]Mepyramine and 1.5 mg of cerebral protein.
The test compounds were dissolved in phosphate buffer or dimethylsulfoxide (DMSO), the final concentration of DMSO was 0.5%. Incubation was terminated by filtration through glass fiber GF/B filters pre-soaked with 0.1% polyethylenimine (PEI); the radioactivity trapped by filters was counted by liquid scintillation.

Compound | LD50 at 336 h (Acute toxicity (LD50)) [mg/kg] | ED50 [1] [mg/kg] | sleeping time % increase ED100 [2] | pKi [3]
CC(C)(C)c1ccc(C(O)CCCN2CCC(C(O)(c3ccccc3)c3ccccc3)CC2)cc1 (centres unmarked) [Terfenadine, reference compound] | > 100 | 0.179 | – | –
CCOCCn1c(CCCN(C)C)nc2ccccc21 [Example 1, 1-(2-Ethoxyethyl)-2-(3-dimethylaminopropyl)benzimidazole] | 250 | 0.00454 | IN | 8.24
CCOCCn1c(CCN(C)C)nc2ccccc21 [Example 9, 1-(2-Ethoxyethyl)-2-(2-dimethylaminoethyl)benzimidazole] | > 100 | 0.00501 | IN | 8.21
CN(C)CCCc1nc2ccccc2n1Cc1ccc(F)cc1 [Example 6, 1-(4-fluorobenzyl)-2-(3-dimethylaminopropyl)benzimidazole] | > 100 | 0.026 | IN | 8.21
